These results are taken from patent EP0818443B1, “Mercaptoketones and mercaptoalcohols, a process for their preparation and their use as inhibitors of matrix metalloproteinases” (American Cyanamid Company, priority 1996, dated 1998).

In experiment [1] the target is T1, human recombinant fibroblast collagenase (Homo sapiens, UniProt P03956).
T1 construct: human recombinant fibroblast collagenase (truncated, mw 18,828, WAR, Radnor)
T1 sequence (P03956 100-269 limits assumed): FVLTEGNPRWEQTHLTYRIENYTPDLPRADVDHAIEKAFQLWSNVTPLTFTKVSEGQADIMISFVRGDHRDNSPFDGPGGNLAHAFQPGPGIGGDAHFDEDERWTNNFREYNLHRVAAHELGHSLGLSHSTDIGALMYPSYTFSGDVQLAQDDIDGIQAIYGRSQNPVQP
The experiment is described as follows: Collagenase inhibition in vitro (fluorogenic peptide substrate). In kind it is biochemical. On the procedure:
The assay is based on the cleavage of a peptide substrate ((Dnp-Pro-Cha-Gly-Cys(Me)-His-Ala-Lys(NMa)-NH2), Peptide International, Inc.) by collagenase releasing the fluorescent NMa group which is quantitated on the fluorometer. Dnp quenches the NMa fluorescence in the intact substrate. The assay is run in HCBC assay buffer (50mM HEPES, pH 7.0, 5mM Ca^+2, 0.02% Brij, 0.5% cysteine), with human recombinant fibroblast collagenase (truncated, mw 18,828, WAR, Radnor). Substrate is dissolved in methanol and stored frozen in 1mM aliquots. Collagenase is stored frozen in buffer in 25 µM aliquots. For the assay, substrate is dissolved in HCBC buffer to a final concentration of 10 µM and collagenase to a final concentration of 5nM. Compounds are dissolved in methanol, DMSO, or HCBC. The methanol and DMSO are diluted in HCBC to <1%. Compounds are added to the 96 well plate containing enzyme and the reaction is started by the addition of substrate.
The reaction is read (excitation 340 nm, emission 444nm) for 10 minutes and the increase in fluorescence over time is plotted as a linear line. The slope of the line is calculated and represents the reaction rate.
The linearity of the reaction rate is confirmed (r^2>0.85). The mean of the control rate is calculated and compared for statistical significance (p<0.05) with drug-treated rates using Dunnett's multiple comparison test. Dose-response relationships can be generated using multiple doses of drug and IC50 values with 95% CI are estimated using linear regression (IPRED, HTB) (Bickett, D. M. et al., A High Throughput Fluorogenic Substrate For Interstitial Collagenase (MMP-1) and Gelatinase (MMP-9), Anal. Biochem. 212, 58-64 (1993)).

The target in experiment [2] is gelatinase (Homo sapiens, UniProt P14780). The experiment is described as follows: In vivo MMP inhibition (enzyme in implanted dialysis tubing). More on the design: species or system rat (Sprague-Dawley) or mouse (CD-1). The method, then:
A 2 cm piece of dialysis tubing (molecular weight cut-off 12-14,000, 10 mm flat width) containing matrix metalloproteinase enzyme (stromelysin, collagenase or gelatinase in 0.5 mL of buffer) is implanted either ip or sc (in the back) of a rat (Sprague-Dawley, 150-200g) or mouse (CD-1, 25-50g) under anesthesia. Drugs are administered PO, IP, SC or IV through a canula in the jugular vein. Drugs are administered in a dose volume of 0.1 to 0.25 mL/animal. Contents of the dialysis tubing is collected and enzyme activity assayed.
Enzyme reaction rates for each dialysis tube are calculated. Tubes from at least 3 different animals are used to calculate the mean± sem. Statistical significance (p<0.05) of vehicle-treated animals versus drug-treated animals is determined by analysis of variance. (Agents and Actions 21: 331, 1987)

Experiment [3] addresses T2, human neutrophil gelatinase B (Homo sapiens, UniProt P14780).
T2 construct: human neutrophil gelatinase B; from tissue; host or cells: human neutrophils
The experiment is described as follows: Gelatinase inhibition in vitro (thiopeptide substrate, DTNB). Format: biochemical. On the procedure: The increase in OD405 is plotted and the slope of the line is calculated which represents the reaction rate.
The mean of the control rate is calculated and compared for statistical significance (p<0.05) with drug-treated rates using Dunnett's multiple comparison test.

The target of experiment [4] is T3, human recombinant stromelysin (Homo sapiens, UniProt P08254).
T3 construct: human recombinant stromelysin (truncated, Affymax); purchased Affymax
The experiment is described as follows: Stromelysin inhibition in vitro (thiopeptide substrate, DTNB). In kind it is biochemical. On the procedure:
The assay is based on the cleavage of the thiopeptide substrate ((Ac-Pro-Leu-Gly(2-mercapto-4-methylpentanoyl)Leu-Gly-OEt), Bachem Bioscience) by the enzyme stromelysin, releasing the substrate product which forms a colorimetric reaction with DTNB ((5,5'-dithiobis(2-nitrobenzoic acid)). The thiopeptide substrate is made up as a 20mM stock in 100% DMSO and stored frozen while the DTNB stock is dissolved in 100% DMSO and stored as a 100mM stock at room temperature. Both the substrate and DTNB are diluted to 1mM with assay buffer (50mM HEPES, pH 7.0, 5 mM CaCl2) before use. The stock of human recombinant stromelysin (truncated, Affymax) is diluted with assay buffer to a final concentration of 12.5 nM in the reaction.
The enzyme, DTNB, and substrate (10µM final concentration) with/without inhibitor (total reaction volume of 200µL) is added to a 96 well plate and then the increase in color is monitored spectrophotometrically for 5 minutes at 405 nanometers (nm) on a plate reader. The increase in OD405 is plotted and the slope of the line is calculated which represents the reaction rate.
The mean of the control rate is calculated and compared for statistical significance (p<0.05) with drug-treated rates using Dunnett's multiple comparison test. Dose-response relationships can be generated using multiple doses of drug and IC50 values with 95% Cl are estimated using linear regression (IPRED, HTB) (Weingarten and Feder, Spectrophometric Assay For Vertebrate Collagenase, Anal. Biochem 147, 437-440 (1985)).

The target of experiment [5] is MMP stromelysin (Homo sapiens, UniProt P08254). The note with it: WO 9407481; cited from earlier work.
Chain of MMP stromelysin (P08254 100-477): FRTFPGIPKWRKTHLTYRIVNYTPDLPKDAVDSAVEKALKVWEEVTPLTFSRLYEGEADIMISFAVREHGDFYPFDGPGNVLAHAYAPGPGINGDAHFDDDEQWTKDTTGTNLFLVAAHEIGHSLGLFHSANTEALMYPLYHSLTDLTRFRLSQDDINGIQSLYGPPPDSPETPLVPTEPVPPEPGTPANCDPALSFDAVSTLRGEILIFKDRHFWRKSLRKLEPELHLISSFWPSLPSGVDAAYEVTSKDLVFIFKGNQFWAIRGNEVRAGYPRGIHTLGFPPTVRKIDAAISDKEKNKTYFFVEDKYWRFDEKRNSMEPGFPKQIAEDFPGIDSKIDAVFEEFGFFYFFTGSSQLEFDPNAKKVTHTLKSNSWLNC

T3 sequence (P08254 100-272 limits assumed): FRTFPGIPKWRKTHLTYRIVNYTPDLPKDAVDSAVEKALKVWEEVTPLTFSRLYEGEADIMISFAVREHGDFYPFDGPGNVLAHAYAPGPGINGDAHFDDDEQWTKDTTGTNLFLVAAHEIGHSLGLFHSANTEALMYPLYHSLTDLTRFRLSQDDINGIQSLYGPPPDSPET
Chain of gelatinase (P14780 94-707): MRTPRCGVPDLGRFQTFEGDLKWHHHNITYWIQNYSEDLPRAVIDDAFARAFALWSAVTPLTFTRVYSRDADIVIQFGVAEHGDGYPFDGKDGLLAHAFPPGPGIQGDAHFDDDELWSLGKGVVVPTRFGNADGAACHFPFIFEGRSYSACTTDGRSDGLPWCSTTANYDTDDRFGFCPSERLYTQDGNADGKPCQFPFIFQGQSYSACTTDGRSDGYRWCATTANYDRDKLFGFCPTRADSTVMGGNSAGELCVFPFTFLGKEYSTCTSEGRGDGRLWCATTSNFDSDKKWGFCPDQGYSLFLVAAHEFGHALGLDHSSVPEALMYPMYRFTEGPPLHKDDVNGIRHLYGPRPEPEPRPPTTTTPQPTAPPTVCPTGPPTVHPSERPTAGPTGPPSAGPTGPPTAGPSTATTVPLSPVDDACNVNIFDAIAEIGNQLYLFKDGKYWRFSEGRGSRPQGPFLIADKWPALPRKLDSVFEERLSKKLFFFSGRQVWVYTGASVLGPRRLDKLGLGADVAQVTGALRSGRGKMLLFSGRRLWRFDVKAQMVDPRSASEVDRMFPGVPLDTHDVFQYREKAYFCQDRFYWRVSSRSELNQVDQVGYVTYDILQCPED
T2 sequence (P14780 94-707): as above

Consider `CNC(=O)[C@@H](NC(=O)[C@H](CC(C)C)C[C@@H](O)CS)C(C)(C)C` [Example 39, (2R,4R)-4-Hydroxy-2-isobutyl-5-mercaptopentanoic acid ((1S)-2,2-dimethyl-1-methylcarbamoylpropyl)amide], for which the IC50 in experiment [1] turned out to be 228 nM; in experiment [3], 106 nM. Also, the “in vivo % gelatinase inhibition” value in experiment [2] (50mpk (milligrams/kilogram)) is given as 20.4/50 mpk %.
As for `CNC(=O)[C@@H](NC(=O)[C@H](CC(C)C)C[C@@H](O)CSC(c1ccccc1)(c1ccccc1)c1ccccc1)C(C)(C)C` [Example 35, (2R,4R)-4-Hydroxy-2-isobutyl-5-tritylsulfanylpentanoic acid ((1S)-2,2-dimethyl-1-methylcarbamoylpropyl)amide], the results for the inhibition at 1 µM in experiment [1] (@1µM) and in experiment [4] were 72% and 38%, respectively. The “in vivo % gelatinase inhibition” value in experiment [2] (50mpk (milligrams/kilogram)) is recorded as 0.44/50mpk %.
`CC(C)C[C@H](NC(=O)[C@@H](CS)CCc1ccccc1)C(=O)Nc1ccccc1`: the “inhibitor of the MMP stromelysin” value in experiment [5] was “moderate”.
As to `CNC(=O)[C@@H](NC(=O)[C@H](CC(C)C)C[C@H](O)CS)C(C)(C)C` [Example 40, (2R,4S)-4-Hydroxy-2-isobutyl-5-mercaptopentanoic acid ((1S)-2,2-dimethyl-1-methylcarbamoylpropyl)amide], the IC50 in experiment [1] was determined as 41 nM; in experiment [3], 19 nM. The “in vivo % gelatinase inhibition” value in experiment [2] (50mpk (milligrams/kilogram)) is listed as 84.8/50mpk %.
Consider `CCCCCCC[C@H](C[C@H](O)CS)C(=O)N[C@H](C(=O)NC)C(C)(C)C` [Example 38, (2R)-2-((2S)-2-Hydroxy-3-mercaptopropyl)nonanoic acid ((1S)-2,2-dimethyl-1-methylcarbamoylpropyl)amide], for which the IC50 in experiment [1] worked out at 30 nM. In addition, the “in vivo % gelatinase inhibition” value in experiment [2] (50mpk (milligrams/kilogram)) is recorded as 22.2/50mpk %.
Turning to `CNC(=O)[C@@H](NC(=O)[C@@H](CC(=O)CS)CC(C)C)C(C)(C)C` [Example 44, (2R)-2-Isobutyl-5-mercapto-4-oxopentanoic acid ((1S)-2,2-dimethyl-1-methylcarbamoylpropyl)amide], in experiment [1], the IC50 worked out at 38 nM. Also, the “in vivo % gelatinase inhibition” value in experiment [2] (60mpk (milligrams/kilogram)) is given as 4.8/60mpk %. Further, the inhibition at 1 µM in experiment [4] is 58%.
For `CCCCCCC[C@H](CC(=O)CS)C(=O)N[C@H](C(=O)NC)C(C)(C)C` [Example 43, (2R)-2-(3-Mercapto-2-oxopropyl)nonanoic acid ((1S)-2,2-dimethyl-1-methylcarbamoylpropyl)amide], the IC50 in experiment [1] amounted to 30 nM; in experiment [4] it was 28 nM. Moreover, in experiment [2] (50mpk (milligrams/kilogram)), the “in vivo % gelatinase inhibition” value is reported as 0.73/50mpk* %.
